What was measured:
histamine H2-receptors [1] = molecular target: T1, histamine H2-receptors (Cavia porcellus, UniProt P47747); assay: standard guinea pig atrium test (inhibition of histamine-induced tachycardia in the isolated guinea pig right atrium); type: cell-based; details: for Kb: isolated guinea pig right atrium, read-out: pA2 (guinea-pig atrium) (converted); for slope of response (figure in brackets with pA2, guinea-pig atrium): slope belonging to pA2, guinea-pig atrium
T1 construct: from tissue; host or cells: isolated guinea pig right atrium
T1 sequence (P47747 whole entry): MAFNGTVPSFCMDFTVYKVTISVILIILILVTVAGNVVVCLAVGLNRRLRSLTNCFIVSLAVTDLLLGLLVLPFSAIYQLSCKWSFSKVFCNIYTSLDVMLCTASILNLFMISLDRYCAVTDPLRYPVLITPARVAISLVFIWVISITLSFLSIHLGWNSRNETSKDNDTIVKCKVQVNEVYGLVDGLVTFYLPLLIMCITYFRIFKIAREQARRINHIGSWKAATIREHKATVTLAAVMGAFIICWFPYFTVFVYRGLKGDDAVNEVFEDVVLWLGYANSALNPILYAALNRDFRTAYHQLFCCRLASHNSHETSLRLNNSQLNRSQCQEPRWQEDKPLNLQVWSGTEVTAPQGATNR
From the text: (§1) The measurement of inhibition of histamine-stimulated secretion of gastric acid from the lumen-perfused stomachs of rats anaesthetised with urethane, and the measurement of inhibition of histamine-induced tachycardia in the isolated guinea pig right atrium, are detailed in U.S. Pat. No. 4,385,058.
(§2) To illustrate the level of activity of these compounds the following data were obtained in the standard guinea pig atrium test and the standard lumen-perfused rat test (for example see EP No. -A-49173).

histamine H2-receptors [2] = molecular target: T2, histamine H2-receptors (Rattus norvegicus, UniProt P25102); assay: standard lumen-perfused rat test (inhibition of histamine-stimulated secretion of gastric acid from the lumen-perfused stomachs of rats anaesthetised with urethane); type: in vivo
T2 construct: secretion of gastric acid from the lumen-perfused stomachs of rats anaesthetised with urethane; from tissue; host or cells: stomach of urethane-anaesthetised rats (in vivo, lumen-perfused)
T2 sequence (P25102 whole entry, the tested form may be a part): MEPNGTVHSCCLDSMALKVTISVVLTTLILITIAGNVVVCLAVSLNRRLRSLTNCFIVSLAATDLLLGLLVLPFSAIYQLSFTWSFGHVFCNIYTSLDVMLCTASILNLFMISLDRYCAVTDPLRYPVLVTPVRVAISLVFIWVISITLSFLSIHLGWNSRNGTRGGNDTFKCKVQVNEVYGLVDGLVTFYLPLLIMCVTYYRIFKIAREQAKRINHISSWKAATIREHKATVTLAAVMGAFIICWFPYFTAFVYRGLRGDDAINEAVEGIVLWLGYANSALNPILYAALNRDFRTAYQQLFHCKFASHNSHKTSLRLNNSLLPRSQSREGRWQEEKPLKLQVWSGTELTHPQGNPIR
From the text: These are actions of histamine which, according to Ash and Schild, Brit. J. Pharmac. Chemother. 27 247 (1966), are not mediated by histamine H1 -receptors.
as §1, §2

| Kb (histamine H2-receptors [1]) [nM] | slope of response (figure in brackets with pA2, guinea-pig atrium) (histamine H2-receptors [1]) | ED50 (histamine H2-receptors [2]) [mg/kg] | SMILES |
| --- | --- | --- | --- |
| 3020 | 0.95 | 1.1 | Nc1n[s+]([O-])nc1NCCCCC#CCN1CCCCC1 (stereo not drawn) [Example 1, 3-Amino-4-[7-piperidinohept-5-ynylamino]-1,2,5-thiadiazole-1-oxide] |
| 646 | 0.61 | 0.16 | CN(C)CC#CCCCCNc1n[s+]([O-])nc1N (stereo not drawn) [Example 2, 3-Amino-4-[7-dimethylaminohept-5-ynylamino]-1,2,5--thiadiazole-1-oxide] |
| 151 | 0.50 | 0.1 | CN(C)CC#CCCCCNC1=NS(=O)(=O)N=C1N [Example 3, 3-Amino-4-[7-dimethylaminohept-5-ynylamino]-1,2,5-thiadiazole-1,1-dioxide] |
| 100 | 0.88 | 0.027 | CN(C)CC#CCCCNC1=NS(=O)(=O)N=C1N [Example 4, 3-Amino-4-[6-dimethylaminohex-4-ynylamino]-1,2,5-thiadiazole-1,1-dioxide] |

Source: patent US4732980A, “Intermediates for 3-amino-1,2,5-thiadiazole-1-oxides” (Smith Kline & French Laboratories Limited, priority 1985, dated 1988)
